According to ChEMBL document CHEMBL3137667, “[Drug-induced liver injury; fourteenth updated edition of the bibliographic database of liver injuries and related drugs]” (Gastroenterol Clin Biol, 2004):

What was measured:
[1] = human
[2] = human; remark: listed apart in the source
[3] = human; remark: listed apart in the source
[4] = Times to onset, minimal and maximal, observed in the indexed observations. [column 'DELAI' in source]; settings: human
[5] = human; remark: listed apart in the source
[6] = Highest frequency of acute liver toxicity observed during clinical trials, expressed as a percentage. [column '% AIGUE' in source]; settings: human
[7] = human; remark: listed apart in the source
[8] = Highest frequency of moderate liver toxicity observed during clinical trials, expressed as a percentage. [column '% BIOL' in source]; settings: human
[9] = human; remark: listed apart in the source
[10] = human, serum, 4383 h
[11] = human; remark: listed apart in the source
[12] = human; remark: listed apart in the source
[13] = human, serum
[14] = human; remark: listed apart in the source
[15] = human, serum; remark: listed apart in the source
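For Hepatotoxicity (association with vascular disease) in this document: count of indexed literature references reporting vascular liver injury in humans, e.g. peliosis hepatitis, hepatic veno-occlusive disease or Budd-Chiari syndrome.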
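For Hepatotoxicity (benign tumour) in this document: value is a count of indexed literature references citing a benign tumour confirmed by histopathology.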
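For Hepatotoxicity (choleostasis) in this document: human cholestatic liver injury, shown by histopathology or by peak ALT or AST elevation over alkaline phosphatase ratio below 2, value counts indexed literature reports.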
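For Hepatotoxicity (chronic liver disease) in this document: chronic liver injury confirmed by histopathology or persistently raised serum aminotransferase activity beyond 6 months, value given as the count of indexed literature references.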
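For Hepatotoxicity (cirrhosis) in this document: value is a count of indexed literature references reporting cirrhosis confirmed by histopathology.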
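For Hepatotoxicity (cytolytic) in this document: human cytolytic liver injury, shown by histopathology or by a ratio above 5 of peak ALT or AST elevation to alkaline phosphatase elevation, value counts indexed references.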
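For Hepatotoxicity (granulomatous hepatitis) in this document: value is a count of indexed literature references reporting granulomatous liver disease confirmed by histopathology.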
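For Hepatotoxicity (malignant tumour) in this document: malignant tumour confirmed by histopathology, value gives the count of indexed literature references reporting it.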
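For Hepatotoxicity (severe hepatitis) in this document: human clinical data: severe hepatitis, meaning potentially life-threatening liver failure or clinically observed cases, the value counts how many indexed literature references report it.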
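For Hepatotoxicity (steatosis) in this document: steatosis confirmed by histopathology, value is the count of indexed references.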

| Structure (SMILES) | Hepatotoxicity (association with vascular disease) [1] | Hepatotoxicity (cytolytic) [2] | Hepatotoxicity (cirrhosis) [3] | Hepatotoxicity (time to onset) [4] | Hepatotoxicity (benign tumour) [5] | Hepatotoxicity (acute) [6] | Hepatotoxicity (malignant tumour) [7] | Hepatotoxicity (moderate) [8] | Hepatotoxicity (severe hepatitis) [9] | Hepatotoxicity (chronic liver disease) [10] | Hepatotoxicity (granulomatous hepatitis) [11] | Hepatotoxicity (choleostasis) [12] | Hepatotoxicity (moderate) [13] | Hepatotoxicity (steatosis) [14] | Hepatotoxicity (acute) [15] | Hepatotoxicity (acute) ([6]; Liver) | Hepatotoxicity (moderate) ([8]; Liver) | Hepatotoxicity (severe hepatitis) ([9]; Liver) |
| --- | --- | --- | --- | --- | --- | --- | --- | --- | --- | --- | --- | --- | --- | --- | --- | --- | --- | --- |
| CCN(CC)CCNC(=O)c1cc(Cl)c(N)cc1OC [METOCLOPRAMIDE] | 1 | 1 | 0 | 2 days - 4 months | 0 | 0% | 0 | 6% | 0 | 0 | 0 | 0 | 2 | 0 | 1 | – | – | – |
| CN(C)CCC(c1ccc(Cl)cc1)c1ccccn1.O=C(O)/C=C\C(=O)O (stereo not given) [CHLORPHENIRAMINE MALEATE] | 0 | 1 | 0 | 1 month | 0 | – | 0 | – | – | 0 | 0 | 1 | 0 | 0 | 2 | 0% | 0% | 0 |
| CO/N=C(\C(=O)N[C@@H]1C(=O)N2C(C(=O)O)=C(COC(C)=O)CS[C@H]12)c1csc(N)n1 [CEFOTAXIME] | 0 | 1 | 0 | 3 days - 2 weeks | 0 | 3.3% | 0 | 33.3% | 0 | 0 | 0 | 2 | 33 | 0 | 4 | – | – | – |
| O=C(O)Cc1sc(-c2ccccc2)nc1-c1ccc(Cl)cc1 [FENTIAZAC] | 0 | 1 | 0 | 4 months - 5 months | 0 | 6.1% | 0 | 35% | 0 | 0 | 0 | 0 | 3 | 0 | 2 | – | – | – |
| Nc1ccc(C(=O)O)cc1 [AMINOBENZOIC ACID] | 0 | 2 | 0 | 4 weeks - 2 months | 0 | 0% | 0 | 35% | 0 | 0 | 0 | 0 | 1 | 0 | 3 | – | – | – |
| C=CC1=C(C(=O)O)N2C(=O)[C@@H](NC(=O)/C(=N\OCC(=O)O)c3csc(N)n3)[C@H]2SC1 [CEFIXIME] | 0 | 0 | 0 | 2 days | 0 | 0% | 0 | 33.3% | 0 | 0 | 0 | 1 | 37 | 0 | 1 | – | – | – |
| CC[C@@H](CO)NC(=O)[C@@H]1C=C2c3cccc4[nH]cc(c34)C[C@H]2N(C)C1 [METHYLERGONOVINE] | 0 | 0 | 0 | 0.12 days | 0 | 0% | 0 | 0% | 0 | 0 | 0 | 0 | 1 | 0 | 0 | – | – | – |
| CN1CCN(C(=S)Nc2ccc(Nc3ccc([N+](=O)[O-])cc3)cc2)CC1 [AMOCARZINE] | 0 | 0 | 0 | 4 days - 2 months | 0 | 0% | 0 | 0% | 0 | 0 | 0 | 0 | 1 | 0 | 0 | – | – | – |
| C[C@H]1[C@H](NC(=O)/C(=N\OC(C)(C)C(=O)O)c2csc(N)n2)C(=O)N1S(=O)(=O)O [AZTREONAM] | 0 | 1 | 0 | 4 days | 0 | – | 0 | – | – | 0 | 0 | 0 | 104 | 0 | 1 | 0% | 60% | 0 |
| CN[C@H](CC(C)C)C(=O)N[C@H]1C(=O)N[C@@H](CC(N)=O)C(=O)N[C@H]2C(=O)N[C@H]3C(=O)N[C@H](C(=O)N[C@H](C(=O)O)c4cc(O)cc(O)c4-c4cc3ccc4O)[C@H](O)c3ccc(c(Cl)c3)Oc3cc2cc(c3O[C@@H]2O[C@H](CO)[C@@H](O)[C@H](O)[C@H]2O[C@H]2C[C@](C)(N)[C@H](O)[C@H](C)O2)Oc2ccc(cc2Cl)[C@H]1O [VANCOMYCIN] | 0 | 1 | 0 | 4 days | 0 | 0% | 0 | 50% | 0 | 0 | 0 | 0 | 9 | 0 | 1 | – | – | – |
| CC(C)[N+](C)(CCC(C(N)=O)(c1ccccc1)c1ccccc1)C(C)C [ISOPROPAMIDE] | 0 | 1 | 0 | 3 months | 0 | 0% | 0 | 0% | 0 | 0 | 0 | 0 | 0 | 0 | 1 | – | – | – |
